Experimental data: patent publication US6007834A (priority 1997, dated 1999)
Values belong to the molecule of their own block, whether it stands above or below them.

How the values were obtained:
nasal mucosa [1] = conditions: in vivo
[2] = Blood plasma melatonin concentrations and pharmacokinetics in healthy male volunteers, by radioimmunoassay (cross-over study); type: in vivo, human; conditions: for Tmax: human, plasma
Experimental: An open randomized, four treatment (treatments A, B, C and D below), cross-over study involving 8 healthy male volunteers was carried out. Before drug administration, the subjects were fasted overnight for at least 10 hours. The administered formulations were as follows:
A: 100 μl water, intranasal (placebo);

[3] = cited from earlier work
nasal mucosa [4] = conditions: propylene glycol in place of ethanol; cited from earlier work

Compound: OCC(O)CO [glycerol]
irritation of the nasal mucosa (nasal mucosa [1]): does not lead to irritation of the nasal mucosa | toxicity towards the epithelial membrane (epithelial membrane): does not exert toxicity towards the epithelial membrane

Cmax, times higher than that resulting from the oral dose ([2]; 0.2 mg nasal vs 2.5 mg oral): about 5 times | amount of melatonin absorbed, 0.2 mg nasal dose vs 2.5 mg oral dose ([2]; 0.2 mg nasal vs 2.5 mg oral): About the same amount | amount of melatonin absorbed, 0.4 mg nasal dose vs 0.2 mg nasal dose ([2]; 0.4 mg nasal vs 0.2 mg nasal): proportional | Cmax, times higher than that resulting from the oral dose ([2]; 0.4 mg nasal vs 2.5 mg oral): ~11 times | dose proportionality of peak plasma concentrations (Cmax) ([2]; 0.2 and 0.4 mg nasal doses): proportional | Tmax ([2]; po, 2.5 mg): 1.5 h | Tmax ([2]; 0.2 and 0.4 mg nasal doses): < 0.167 h | rate of absorption ([2]; nasally administered): absorbed extremely rapidly
Compound: COc1ccc2[nH]cc(CCNC(C)=O)c2c1 [melatonin, N-acetyl-5-methoxytryptamine]
solubility in water [3]: low solubility

Compound: CC(O)CO (stereo not drawn) [propylene glycol]
toxicity to the nasal mucosa (nasal mucosa [4]): adversely affects the nasal mucosa
